# Laboratory results: ChEMBL document CHEMBL4837270, “2-Trifluoromethylthiazole-5-carboxamides: Analogues of a Stilbene-Based Anti-HIV Agent that Impact HIV mRNA Processing” (ACS Med Chem Lett, 2021)
# Calls of active or inactive are those of the source. No cut-off for these calls is given here.
# Key:
# [1] = tested on: Human immunodeficiency virus 1; assay: Antiviral activity against HIV1 NL4-3 infected in human CEM-GXR cells assessed as inhibition of viral replication at 1.25 to 10 uM measured after 3 days by Flowcytometry assay; assay type: functional, organism-based; conditions: dose 1.25-10 µM, time 3.0 day
# [2] = tested on: Human immunodeficiency virus; assay: Antiviral activity against HIV; assay type: functional, organism-based; conditions: Human immunodeficiency virus 1
# [3] = Cytotoxicity against human CEM-GXR cells infected with HIV1 NL4-3 assessed as cell viability at 1.25 to 10 uM measured after 3 days by Flowcytometry assay; assay type: cell-based; conditions: 72 h, dose 1.25-10 µM, time 3 day
# [4] = tested on: Human immunodeficiency virus 1; assay: Antiviral activity against wild type HIV1 NL4-3 infected in human CEM-GXR cells assessed as inhibition of viral replication measured after 3 days by Flowcytometry assay; assay type: functional, organism-based; conditions: Human immunodeficiency virus 1, NL4-3, CEM-GXR, 72 h
# [5] = tested on: Human immunodeficiency virus 1; assay: Antiviral activity against wild type HIV1 97USSN54 infected in human CEM-GXR cells assessed as inhibition of viral replication measured after 3 days by Flowcytometry assay; assay type: functional, organism-based; conditions: Human immunodeficiency virus 1, 97USSN54, CEM-GXR, 72 h
# [6] = Cytotoxicity against human CEM-GXR cells infected with wild type HIV1 NL4-3 assessed as cell viability measured after 72 hrs by Flow cytometry assay; assay type: cell-based
# [7] = Cytotoxicity against human CEM-GXR cells infected with wild type HIV1 97USSN54 assessed as cell viability measured after 72 hrs by Flow cytometry assay; assay type: cell-based
# [8] = Therapeutic index, ratio of CC50 for human CEM-GXR cells infected with wild type HIV1 NL4-3 to EC50 for wild type HIV1 NL4-3 infected in human CEM-GXR cells; assay type: toxicity, cell-based; conditions: read-out: TI
# [9] = Therapeutic index, ratio of CC50 for human CEM-GXR cells infected with wild type HIV1 97USSN54 to EC50 for wild type HIV1 97USSN54 infected in human CEM-GXR cells; assay type: toxicity, cell-based; conditions: read-out: TI
# [10] = Cytotoxicity against human PBMC cells assessed as cell viability measured after 11 days by Viacount assay; assay type: cell-based; conditions: time 11 day
# [11] = tested on: Human immunodeficiency virus 1; assay: Anti-HIV activity against HIV1 Bal infected in human PBMC assessed as inhibition of viral infection measured after 11 days by ELISA method; assay type: functional, organism-based; conditions: Human immunodeficiency virus 1, Bal, 264 h
# [12] = Anti-HIV activity against HIV1 3B infected in human PBMC assessed as inhibition of viral infection measured after 11 days by ELISA method; assay type: functional, cell-based; conditions: Human immunodeficiency virus 1, 3B, 264 h
# [13] = tested on: Human immunodeficiency virus 1; assay: Antiviral activity against HIV1 NL4-3 infected in human CEM-GXR cells assessed as inhibition of viral replication measured after 3 days by Flowcytometry assay; assay type: functional, organism-based; conditions: Human immunodeficiency virus 1, NL4-3, CEM-GXR, 72 h
# [14] = tested on: Human immunodeficiency virus 1; assay: Antiviral activity against antiretroviral-resistant HIV1 443 harboring reverse transcriptase K103N/D67N/K70R/Y115F/Q151M/M184V/K219Q mutant infected in human CEM-GXR cells assessed as inhibition of viral replication measured after 3 days by Flowcytometry assay; assay type: functional, organism-based; conditions: Human immunodeficiency virus 1, 443, CEM-GXR, 72 h
# [15] = tested on: Human immunodeficiency virus 1; assay: Antiviral activity against antiretroviral-resistant HIV1 2948 harboring protease G48V/L90M mutant infected in human CEM-GXR cells assessed as inhibition of viral replication measured after 3 days by Flowcytometry assay; assay type: functional, organism-based; conditions: Human immunodeficiency virus 1, 2948, CEM-GXR, 72 h
# [16] = tested on: Human immunodeficiency virus 1; assay: Antiviral activity against antiretroviral-resistant HIV1 11845 harboring integrase G140S/Q148H mutant infected in human CEM-GXR cells assessed as inhibition of viral replication measured after 3 days by Flowcytometry assay; assay type: functional, organism-based; conditions: Human immunodeficiency virus 1, 11845, CEM-GXR, 72 h
# [17] = tested on: Human immunodeficiency virus 1; assay: Antiviral activity against antiretroviral-resistant HIV1 MVC-res harboring envelope V3 loop A19T/L20F/T22A/E25D/I26V mutant infected in human CEM-GXR cells assessed as inhibition of viral replication measured after 3 days by Flowcytometry assay; assay type: functional, organism-based
# [18] = Cytotoxicity against human CEM-GXR cells infected with wild type HIV1 443 harboring reverse transcriptase K103N/D67N/K70R/Y115F/Q151M/M184V/K219Q mutant assessed as cell viability measured after 72 hrs by Flow cytometry assay; assay type: cell-based
# [19] = Cytotoxicity against human CEM-GXR cells infected with wild type HIV1 2948 harboring protease G48V/L90M mutant assessed as cell viability measured after 72 hrs by Flow cytometry assay; assay type: cell-based
# [20] = Cytotoxicity against human CEM-GXR cells infected with wild type HIV1 11845 harboring […] G140S/Q148H mutant assessed as cell viability measured after 72 hrs by Flow cytometry assay; assay type: cell-based
# [21] = Cytotoxicity against human CEM-GXR cells infected with wild type HIV1 MVC-res harboring envelope V3 loop A19T/L20F/T22A/E25D/I26V mutant assessed as cell viability measured after 72 hrs by Flow cytometry assay; assay type: cell-based
# [22] = Therapeutic index, ratio of CC50 for human CEM-GXR cells infected with HIV1 443 harboring reverse transcriptase K103N/D67N/K70R/Y115F/Q151M/M184V/K219Q mutant to EC50 for HIV1 443 harboring reverse transcriptase K103N/D67N/K70R/Y115F/Q151M/M184V/K219Q mutant; assay type: toxicity; conditions: read-out: TI
# [23] = Therapeutic index, ratio of CC50 for human CEM-GXR cells infected HIV1 2948 with harboring protease G48V/L90M mutant to EC50 for HIV1 2948 harboring protease G48V/L90M mutant infected in human CEM-GXR cells; assay type: toxicity, cell-based; conditions: read-out: TI
# [24] = Therapeutic index, ratio of CC50 for human CEM-GXR cells infected with HIV1 11845 harboring integrase G140S/Q148H mutant to EC50 for HIV1 11845 harboring integrase G140S/Q148H mutant infected in human CEM-GXR cells; assay type: toxicity, cell-based; conditions: read-out: TI
# [25] = Therapeutic index, ratio of CC50 for human CEM-GXR cells infected with HIV1 MVC-res harboring envelope V3 loop A19T/L20F/T22A/E25D/I26V mutant to EC50 for HIV1 MVC-res harboring envelope V3 loop A19T/L20F/T22A/E25D/I26V mutant infected in human CEM-GXR cells; assay type: toxicity, cell-based; conditions: read-out: TI
# [26] = tested on: Human immunodeficiency virus 1; assay: Anti-HIV activity against HIV1 provirus infected in HeLa cells assessed as reduction of GAG production in presence of Doxycycline measured after 24 hrs by GFP flourescence based plate reader method; assay type: functional, organism-based
# HeLa = assay: Cytotoxicity against human HeLa cells infected with HIV1 assessed as cell viability upto 5 uM measured after 24 hrs by plate reader method; assay type: cell-based
# [27] = tested on: Human immunodeficiency virus 1; assay: Antiviral activity against HIV1 infected in HeLa cells assessed as decrease of unspliced RNA levels at 1.25 uM measured after 24 hrs by RT-qPCR method; assay type: functional, organism-based
# [28] = tested on: Human immunodeficiency virus 1; assay: Antiviral activity against HIV1 infected in HeLa cells assessed as decrease of singly spliced RNA levels at 1.25 uM measured after 24 hrs by RT-qPCR method; assay type: functional, organism-based
# [29] = tested on: Human immunodeficiency virus 1; assay: Antiviral activity against HIV1 infected in HeLa cells assessed as decrease of multiply spliced RNA levels at 1.25 uM measured after 24 hrs by RT-qPCR method; assay type: functional, organism-based
# [30] = tested on: Human immunodeficiency virus 1; assay: Antiviral activity against HIV1 infected in HeLa cells assessed as decrease of unspliced RNA levels at 5 uM measured after 24 hrs by RT-qPCR method; assay type: functional, organism-based
# [31] = tested on: Human immunodeficiency virus 1; assay: Antiviral activity against HIV1 infected in HeLa cells assessed as decrease of singly spliced RNA levels at 5 uM measured after 24 hrs by RT-qPCR method; assay type: functional, organism-based
# [32] = tested on: Human immunodeficiency virus 1; assay: Antiviral activity against HIV1 infected in HeLa cells assessed as decrease of multiply spliced RNA levels at 5 uM measured after 24 hrs by RT-qPCR method; assay type: functional, organism-based
# [33] = Cytotoxicity against human CEM-GXR cells infected with HIV1 NL4-3 assessed as cell viability measured after 3 days by Flowcytometry assay; assay type: cell-based; conditions: 72 h
smiles,measurement,setting,value
O=C(Nc1cccc2cccnc12)c1ccc([N+](=O)[O-])s1,Activity,[1],inactive
O=[N+]([O-])c1ccc(/C=C/c2ccc3ccccc3n2)s1,EC50,[2],500 nM
O=C(Nc1nc2c(Cl)cc(Cl)cc2s1)c1ccc([N+](=O)[O-])s1,Activity,[1],Active
same,Activity,[3],Toxic
Cc1ccc(C(=O)Nc2nc3c(Cl)cccc3s2)s1,Activity,[1],inactive
O=C(Nc1nc2c(Cl)cccc2s1)c1cccs1,Activity,[1],inactive
Nc1nc(=O)n([C@@H]2CS[C@H](CO)O2)cc1F [EMTRICITABINE],EC50,[4],30 nM
same,EC50,[5],30 nM
same,CC50 at 72 h,[6],> 100 µM
same,CC50 at 72 h,[7],> 100 µM
same,selectivity ratio,[8],> 2940
same,selectivity ratio,[9],> 3850
same,CC50 at 264 h,[10],> 10000 nM
same,EC50,[11],2.1 nM
same,EC50,[12],5.5 nM
O=C(Nc1nc2ccc(C(F)(F)F)cc2s1)c1cnc(C(F)(F)F)s1,EC50,[13],470 nM
same,EC50,[4],250 nM
same,EC50,[5],180 nM
same,EC50,[14],240 nM
same,EC50,[15],230 nM
same,EC50,[16],200 nM
same,EC50,[17],220 nM
same,CC50 at 72 h,[6],12.1 µM
same,CC50 at 72 h,[7],12.1 µM
same,CC50 at 72 h,[18],12.1 µM
same,CC50 at 72 h,[19],12.1 µM
same,CC50 at 72 h,[20],12.1 µM
same,CC50 at 72 h,[21],12.1 µM
same,selectivity ratio,[8],49
same,selectivity ratio,[9],68
same,selectivity ratio,[22],51
same,selectivity ratio,[23],52
same,selectivity ratio,[24],59
same,selectivity ratio,[25],56
same,CC50 at 264 h,[10],2510 nM
same,EC50,[11],250 nM
same,EC50,[12],740 nM
same,Activity,[26],Dose-Dependent Effect
same,Activity,HeLa,Toxic
same,Activity,[27],Active
same,Activity,[28],Active
same,Activity,[29],Active
same,Activity,[30],inactive
same,Activity,[31],inactive
same,Activity,[32],inactive
O=C(Nc1nc2c(Cl)cccc2s1)c1ccc([N+](=O)[O-])s1,Activity,[1],Active
same,EC50,[33],5.5 µM
O=C(Nc1nc2ccc(C(F)(F)F)cc2s1)c1ccc([N+](=O)[O-])s1,Activity,[1],Active
same,EC50,[33],0.5 µM
O=C(Nc1nc2ccc(Cl)cc2s1)c1ccc([N+](=O)[O-])s1,Activity,[1],Active
same,Activity,[3],Toxic
